In PubChem BioAssay AID1745844 (Carcinogenic Potency Database (CPDB), 2022):
Several values for one entry are separate records, joined by “and”; a condition that tells them apart may be missing. Equal values may be shown once. Activity calls are given as the source filed them. How the calls were made is not given here.

System: rodent lifetime carcinogenesis bioassay, tumor incidence TD50
Assay: carcinogenic potency in animals, long-term in vivo studies, CPDB compilation (AID 1745844)

With `O=C1OC(c2ccc(O)cc2)(c2ccc(O)cc2)c2ccccc21` as the compound, how does the TD50 (mouse, strain B6C3F1, females, in feed, site: all sites + ovary, lesion: histiocytic sarcoma + lymphoma malignant, thymic origin + malignant lymphoma + sex-cord stromal tumor, benign, bilateral + sex-c, dosed 105 weeks, study length 105 weeks) read?
The TD50 was 508 mg/kg/day.

What about the TD50 (mouse, strain B6C3F1, females, in feed, site: all sites, lesion: histiocytic sarcoma, dosed 105 weeks, study length 105 weeks) of the same compound?
The TD50 was 4080 mg/kg/day.

And the TD50 (mouse, strain B6C3F1, females, in feed, site: all sites, lesion: lymphoma malignant, thymic origin, dosed 105 weeks, study length 105 weeks)?
The TD50 was 1610 mg/kg/day.

What about the TD50 (mouse, strain B6C3F1, females, in feed, site: all sites, lesion: malignant lymphoma, dosed 105 weeks, study length 105 weeks) of the same compound?
Its TD50 is 748 mg/kg/day.

What about the TD50 (mouse, strain B6C3F1, females, in feed, site: any site (literature study), lesion: several types, types named in the paper, dosed 105 weeks, study length 105 weeks) of the same compound?
The TD50 was 1740 mg/kg/day.

What about the TD50 (mouse, strain B6C3F1, females, in feed, site: lung, lesion: alveolar/bronchiolar adenoma + alveolar/bronchiolar carcinoma, dosed 105 weeks, study length 105 weeks) of the same compound?
Its TD50 is 9190 mg/kg/day.

And the TD50 (mouse, strain B6C3F1, females, in feed, site: ovary, lesion: sex-cord stromal tumor, benign, bilateral + sex-cord stromal tumor, benign, dosed 105 weeks, study length 105 weeks)?
The TD50 was 1900 mg/kg/day.

What about the TD50 (mouse, strain B6C3F1, males, in feed, site: all sites, lesion: histiocytic sarcoma + lymphoma malignant, thymic origin, dosed 104 weeks, study length 104 weeks) of the same compound?
The TD50 was 1150 mg/kg/day.

And the TD50 (mouse, strain B6C3F1, males, in feed, site: all sites, lesion: histiocytic sarcoma, dosed 104 weeks, study length 104 weeks)?
Its TD50 is 2680 mg/kg/day.

And the TD50 (mouse, strain B6C3F1, males, in feed, site: all sites, lesion: lymphoma malignant, thymic origin, dosed 104 weeks, study length 104 weeks)?
Its TD50 is 2740 mg/kg/day.

And the TD50 (mouse, strain B6C3F1, males, in feed, site: any site (literature study), lesion: several types, types named in the paper, dosed 104 weeks, study length 104 weeks)?
Its TD50 is 32200 mg/kg/day.

What about the TD50 (mouse, strain B6C3F1, males, in feed, site: lung, lesion: alveolar/bronchiolar adenoma + alveolar/bronchiolar carcinoma, dosed 104 weeks, study length 104 weeks) of the same compound?
The TD50 was 8060 mg/kg/day.

What about the TD50 (mouse, strain B6C3F1, males, in feed, site: spleen, lesion: hemangiosarcoma, dosed 104 weeks, study length 104 weeks) of the same compound?
The TD50 was 1640 mg/kg/day.

And the TD50 (mouse, strain BALB/c, males, in feed, site: liver, lesion: hepatoma, dosed 60 weeks, study length 104 weeks)?
Its TD50 is 20800 mg/kg/day (inactive).

And the carcinogen call (mouse, strain BALB/c, males, in feed, site: lung, lesion: one or several types, types not named, dosed 60 weeks, study length 104 weeks)?
Its carcinogen call is “negative (inactive)”.

What about the carcinogen call (mouse, strain C57BL/6J, males, by gavage, site: liver, lesion: hepatoma, dosed 69 weeks, study length 104 weeks) of the same compound?
Its carcinogen call is “negative (inactive)”.

What about the carcinogen call (mouse, strain C57BL/6J, males, by gavage, site: lung, lesion: one or several types, types not named, dosed 69 weeks, study length 104 weeks) of the same compound?
The carcinogen call was “negative (inactive)”.

And the TD50 (rat, strain Fischer 344, females, in feed, site: adrenal medulla, lesion: pheochromocytoma benign, bilateral + pheochromocytoma, benign, dosed 105 weeks, study length 105 weeks)?
The TD50 was 4160 mg/kg/day.

And the TD50 (rat, strain Fischer 344, females, in feed, site: adrenal medulla, lesion: pheochromocytoma benign, bilateral + pheochromocytoma, malignant + pheochromocytoma, benign, dosed 105 weeks, study length 105 weeks)?
The TD50 was 3530 mg/kg/day.

And the TD50 (rat, strain Fischer 344, males, in feed, site: adrenal medulla + kidney, lesion: pheochromocytoma benign, bilateral + pheochromocytoma, benign + tubule adenoma + tubule carcinoma, dosed 104 weeks, study length 104 weeks)?
Its TD50 is 250 mg/kg/day.

What about the TD50 (rat, strain Fischer 344, males, in feed, site: adrenal medulla, lesion: pheochromocytoma benign, bilateral + pheochromocytoma, benign, dosed 104 weeks, study length 104 weeks) of the same compound?
Its TD50 is 517 mg/kg/day.

What about the TD50 (rat, strain Fischer 344, males, in feed, site: adrenal medulla, lesion: pheochromocytoma benign, bilateral + pheochromocytoma, malignant + pheochromocytoma malignant, bilateral + pheochromocytoma, b, dosed 104 weeks, study length 104 weeks) of the same compound?
Its TD50 is 533 mg/kg/day.

And the TD50 (rat, strain Fischer 344, males, in feed, site: any site (literature study), lesion: several types, types named in the paper, dosed 104 weeks, study length 104 weeks)?
Its TD50 is 3540 mg/kg/day.

And the TD50 (rat, strain Fischer 344, males, in feed, site: kidney, lesion: tubule adenoma + tubule carcinoma, dosed 104 weeks, study length 104 weeks)?
Its TD50 is 3220 mg/kg/day and 975 mg/kg/day.

And the TD50 (rat, strain Fischer 344, males, in feed, site: kidney, lesion: tubule adenoma, dosed 104 weeks, study length 104 weeks)?
The TD50 was 4050 mg/kg/day and 1040 mg/kg/day.

And the TD50 (rat, strain Fischer 344, males, in feed, site: liver, lesion: hepatocellular adenoma + hepatoblastoma + hepatocellular carcinoma, dosed 104 weeks, study length 104 weeks)?
Its TD50 is 118000 mg/kg/day.

What about the TD50 (rat, strain Fischer 344, males, in feed, site: thyroid gland, lesion: follicular-cell adenoma, bilateral + follicular-cell adenoma, dosed 104 weeks, study length 104 weeks) of the same compound?
The TD50 was 6990 mg/kg/day.

Which results are given for `O=NN1CCOC1=O`?
TD50 (rat, strain MRC-Wistar, males, in drinking water, site: any site (literature study), lesion: one or several types, types not named, dosed 70 weeks, study length 70 weeks): 0.335 mg/kg/day; carcinogen call (rat, strain MRC-Wistar, males, in drinking water, site: intestine, lesion: several types, types named in the paper, dosed 64 weeks, study length 64 weeks): positive; TD50 (rat, strain MRC-Wistar, males, in drinking water, site: intestine, lesion: several types, types named in the paper, dosed 70 weeks, study length 70 weeks): 0.729 mg/kg/day; TD50 (rat, strain MRC-Wistar, males, in drinking water, site: liver, lesion: several types, types named in the paper, dosed 64 weeks, study length 64 weeks): 0.582 mg/kg/day; TD50 (rat, strain MRC-Wistar, males, in drinking water, site: liver, lesion: several types, types named in the paper, dosed 70 weeks, study length 70 weeks): 1.15 mg/kg/day

`Cc1ccc2c(-c3cccc(O)c3)nc(=O)n(C(C)C)c2c1` was tested. Which carcinogen call (mouse, strain Charles River CD1, females, in feed, site: liver, lesion: hemangiosarcoma, dosed 86 weeks, study length 86 weeks) did it give?
Its carcinogen call is “negative (inactive)”.

And the carcinogen call (mouse, strain Charles River CD1, females, in feed, site: lung, lesion: alveolar/bronchiolar adenoma, dosed 86 weeks, study length 86 weeks)?
Its carcinogen call is “negative (inactive)”.

And the TD50 (mouse, strain Charles River CD1, females, in feed, site: lung, lesion: alveolar/bronchiolar carcinoma, dosed 86 weeks, study length 86 weeks)?
The TD50 was 4600 mg/kg/day (inactive).

What about the carcinogen call (mouse, strain Charles River CD1, females, in feed, site: lung, lesion: hibernoma, malignant, dosed 86 weeks, study length 86 weeks) of the same compound?
The carcinogen call was “negative (inactive)”.

What about the carcinogen call (mouse, strain Charles River CD1, males, in feed, site: liver, lesion: hemangiosarcoma, dosed 86 weeks, study length 86 weeks) of the same compound?
The carcinogen call was “negative (inactive)”.

And the carcinogen call (mouse, strain Charles River CD1, males, in feed, site: lung, lesion: alveolar/bronchiolar adenoma, dosed 86 weeks, study length 86 weeks)?
Its carcinogen call is “negative (inactive)”.

What about the TD50 (mouse, strain Charles River CD1, males, in feed, site: lung, lesion: alveolar/bronchiolar carcinoma, dosed 86 weeks, study length 86 weeks) of the same compound?
Its TD50 is 8400 mg/kg/day (inactive).

And the carcinogen call (rat, strain Sandoz, females, in feed, site: liver, lesion: hepatocellular carcinoma, dosed 104 weeks, study length 104 weeks)?
Its carcinogen call is “negative (inactive)”.

What about the TD50 (rat, strain Sandoz, females, in feed, site: liver, lesion: neoplastic nodule, dosed 104 weeks, study length 104 weeks) of the same compound?
The TD50 was 2220 mg/kg/day (inactive).

What about the carcinogen call (rat, strain Sandoz, females, in feed, site: mammary tissue, wider than the gland, lesion: fibroadenoma, dosed 104 weeks, study length 104 weeks) of the same compound?
The carcinogen call was “negative (inactive)”.

What about the TD50 (rat, strain Sandoz, males, in feed, site: adrenal gland, lesion: malignant tumor, dosed 104 weeks, study length 104 weeks) of the same compound?
The TD50 was 113 mg/kg/day (inactive).

What about the carcinogen call (rat, strain Sandoz, males, in feed, site: liver, lesion: one or several types, types not named, dosed 104 weeks, study length 104 weeks) of the same compound?
The carcinogen call was “negative (inactive)”.
